# In US20100175140A1, “Leucine-rich repeat kinase (LRRK2) drosophila model for parkinson's disease: wildtype1 (WT1) and G2019S mutant flies” (The Johns Hopkins University, priority 2008, published 2010):
# System: ddc-GAL4;G2019S-2 flies
# Assay: Climbing assay (negative geotaxis) of LRRK2-G2019S transgenic flies treated with L-DOPA
# Format: in vivo, Drosophila melanogaster
# Conditions: 5 weeks of age, 1 mM L-DOPA for 10 days, P<0.05 vs untreated (FIG. 2E)
# Text: We determined locomotor ability using a climbing assay (negative geotaxis assay) as described previously (23). Cohorts of 60 flies from each genotype were subjected to the assay weekly from 1 week to the time of death. The tested flies were age-matched, randomly selected, anesthetized, and placed in a vertical plastic column (length, 25 cm; diameter, 1.5 cm). After a 30-min recovery from CO2 exposure, flies were gently tapped to the bottom of the column. We counted and calculated the percentage of flies that could climb to or above the median line of the cylinder in 10 seconds. Each week, the assay was repeated three times.
smiles,measurement,value
N[C@@H](Cc1ccc(O)c(O)c1)C(=O)O [L-DOPA],locomotor activity (climbing assay),significantly improved
